Test results from US8367659B2, “Oxazinyl isoflavonoid compounds, medicaments and use” (Marshall Edwards, Inc., priority 2007, dated 2013).

How the values were obtained:
HPAC = assay: Anti-cancer activity, HPAC pancreatic cancer cells (MTT); assay type: cell-based; settings: Homo sapiens, 120 h, 5 days
[1] = Free radical scavenging with DPPH; settings: DPPH, 20 minutes, absorbance 517 nm; Table 4; read-out: Free radical scavenging ability EC50
How it was run: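 Compounds reacted with DPPH in ethanol for 20 min, screened at 100 μM, and absorbance at 517 nm compared with a DPPH-ethanol blank. IC50 was taken as the concentration giving a 0.6 absorbance change, with 1.2 units representing total scavenging.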

MM200 = assay: Anti-cancer activity, MM200 melanoma cells (MTT); assay type: cell-based; settings: 120 h; 5 days, MTT
[2] = system: human umbilical vein smooth muscle cells (HUVSMC); assay: Proliferation of human umbilical vein smooth muscle cells (MTT); assay type: cell-based; settings: 10 μM; 10% FCS, 5 days; FIG. 8
Description: The effect of test compounds on human umbilical vein smooth muscle cells (HUVSMC) was examined. Cells were seeded into 96 well plates at a low seeding rate of 1.6×10^3 cells per well, and allowed to attach for 24 hours. The cells were then washed twice with medium without FCS and incubated in medium without FCS for 20 hours to serum starve them. Analogue was prepared in medium without FCS at 20 μM and added to the plates and incubated for one hour. Final analogue concentration was therefore 10 μM. The cells were then stimulated by adding medium +20% FCS, to give a final FCS concentration of 10%. The cells were incubated until the control cells i.e. those with FCS and no compound, were just confluent (5 days). An MTT assay was performed, and difference in absorbance in analogue treated cells from the control was calculated using the formula: test/control*100−100. Results
The effect of test compounds on human umbilical vein smooth muscle cells (HUVSMC), was examined. Cells, tissue explants from a neonate (HRI—passage 2), were seeded into 96 well plates at 1×10^3 cells per well, and allowed to attach for 24 hours. They were then washed twice and incubated in medium without foetal calf serum (FCS) for 24-48 hours to serum-starve them. Test compounds were prepared in medium without FCS and added to the plates and incubated for one hour. Medium with FCS was added to give a final concentration of 10% and the plates incubated for 4-5 days until the controls were just confluent.

cancer cell lines = assay: Anti-cancer activity, cancer cell lines tested as a group (MTT); assay type: cell-based
CP70 = assay: Anti-cancer activity, CP70 ovarian cancer cells (MTT); assay type: cell-based; settings: 120 h, 5 days
[3] = system: neonatal foreskin fibroblasts (NFF); assay: Toxicity to normal cells, neonatal foreskin fibroblasts; assay type: cell-based; settings: Fibroblast; normal, non-transformed cells; read-out: IC50 μM, NFF Fibroblast
Description: (§1) IC50 values were determined for each cell line. Cells were seeded in 96-well plates at an appropriate cell density as determined from growth kinetics analysis and cultured for 5 days in the absence and presence of the test compounds. Cell proliferation was assessed after the addition of 20 μl of 3-4,5 dimethylthiazol-2,5-diphenyl tetrazolium bromide (MTT, 2.5 mg/ml in PBS, Sigma) for 3-4 hrs at 37° C. according to manufacturer's instructions. IC50 values were calculated from semi-log plots of % of control proliferation on the y-axis against log dose on the x-axis.
(§2) The neonatal foreskin fibroblasts (NFF) were a gift from Dr. Peter Parsons (Queensland Institute of Medical Research). Rabbit kidney (RK-13) cells were obtained from Miller Whalley (Macquarie University). Both cell lines were cultured in RPMI supplemented with 10% FCS(CSL, Australia), penicillin (100 U/ml), streptomycin ([…]), L-glutamine (2 mM) and sodium bicarbonate (1.2 g/L), and cultured at 37° C. in a humidified atmosphere of 5% CO2. IC50 values were determined as described above.

[4] = system: TNFα synthesis in RAW 264.7 murine macrophages; assay: LPS-induced TNFα synthesis in RAW 264.7 murine macrophages; assay type: cell-based, mouse; settings: 10 μM; relative to vehicle alone; FIG. 5
Description: The mouse macrophage cell line RAW 264.7 was cultured in DMEM supplemented with foetal calf serum (FCS), […] glutamine and 50 U/ml penicillin/streptomycin. Cells were treated with either test compound (in 0.025% DMSO) or vehicle alone, and added one hour before 50 ng/ml LPS. After incubation for 24 h, culture media was collected for PGE2 or TXB2 measurement by ELISA (Cayman Chemical), and TNFα measurement using an ELISA (Becton Dickinson). Test compounds were examined a concentration of 10 μM. […] Consequently, to assess the effect of test compounds on various analytes, cell viability was taken into consideration with the use of the formula: Actual effect of test compound=measured effect−(effect on cell viability×measured effect)

[5] = system: Rabbit kidney (RK-13) cells; assay: Toxicity to normal cells, rabbit kidney (RK-13) cells; assay type: cell-based; settings: Oryctolagus cuniculus, normal, non-transformed cells, read-out: IC50 μM, RK Rabbit Kidney
Description: as §1, §2

HT29 = assay: Anti-cancer activity, HT-29 colon adenocarcinoma cells (MTT); assay type: cell-based; settings: Homo sapiens, HT-29, 120 h, 5 days, read-out: IC50 μM, HT29 Colorectal
[6] = molecular target: T1, GAL4-PPARγ fusion protein (Homo sapiens, UniProt P37231); assay: PPARγ activity in transfected HEK293 cells (beta-lactamase reporter); assay type: cell-based; settings: FIG. 13: 1 μM
T1 construct: host or cells: HEK293 (human embryonic kidney), stably transfected
How it was run: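 HEK293 cells stably expressing GAL4-DBD/PPARγ-LBD fusion with beta-lactamase reporter, treated with compound at 1, 5 and 10 μM for 16-18 h. Beta-lactamase read via FRET substrate (2 h, room temperature), ex 409 nm, em 460/530 nm; background-subtracted emission ratio.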

NCI-H460 = assay: Anti-cancer activity, NCI-H460 large cell lung cancer cells (MTT); assay type: cell-based; settings: Homo sapiens, NCI-H460, 120 h, 5 days, read-out: IC50 μM, NCI-H460 Lung (NSCLC)
MDA-MB-468 = assay: Anti-cancer activity, MDA-MB-468 breast cancer cells (MTT); assay type: cell-based; settings: Homo sapiens, MDA-MB-468, 120 h, 5 days

T1 sequence (P37231 238-503 limits assumed): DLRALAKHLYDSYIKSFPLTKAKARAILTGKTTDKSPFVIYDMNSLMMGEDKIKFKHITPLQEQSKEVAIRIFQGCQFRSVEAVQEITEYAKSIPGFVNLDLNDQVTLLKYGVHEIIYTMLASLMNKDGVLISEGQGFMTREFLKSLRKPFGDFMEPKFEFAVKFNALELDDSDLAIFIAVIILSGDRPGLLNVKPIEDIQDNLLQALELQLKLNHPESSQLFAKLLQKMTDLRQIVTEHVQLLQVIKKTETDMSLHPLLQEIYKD
T1 sequence (P04386 1-147 partner limits assumed): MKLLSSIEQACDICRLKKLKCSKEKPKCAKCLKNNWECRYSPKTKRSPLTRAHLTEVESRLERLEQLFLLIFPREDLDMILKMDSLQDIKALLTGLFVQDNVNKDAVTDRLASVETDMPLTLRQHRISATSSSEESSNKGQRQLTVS

| IC50 (HPAC) [µM] | EC50 [1] [µM] | IC50 (MM200) [µM] | IC50 (cancer cell lines; read-out: most potent activity against the respective cell lines tested) [µM] | IC50 (CP70) [µM] | IC50 (HT29) [µM] | PPARγ activation, increase in beta-lactamase activity over media only control [6] | IC50 (NCI-H460) [µM] | IC50 (MDA-MB-468) [µM] | Structure (SMILES) | effect on proliferation of HUVSMCs induced by FCS [2] | activity against CP70, HPAC and MM200 cell lines (cancer cell lines; CP70, HPAC and MM200) | IC50 [3] [µM] | mean change of LPS-induced TNFα synthesis [4] | IC50 [5] [µM] |
| --- | --- | --- | --- | --- | --- | --- | --- | --- | --- | --- | --- | --- | --- | --- |
| 5.3 | 40 | 2.3 | 1 to 5 | 4.5 |  |  |  |  | COCCCN1COc2cc3c(cc2C1)C=C(c1cccc(O)c1)CO3 [Compound 17, 3-(3-(3-Methoxypropyl)-2,3,4,8-tetrahydrochromeno[6,7-e][1,3]oxazin-7-yl)phenol] | significantly inhibited the proliferation | active | 55.9 | greatest inhibition | 5.5 |
| 12.4 ± 4 | 26 | 23.2 ± 1.1 |  | 10.9 ± 1.5 | 50.8 ± 1 | PPARγ agonist activity | 17.8 ± 1.1 | 14.9 ± 1 | CCCN1COc2cc3c(cc2C1)C=C(c1ccc(O)cc1)C(CC)O3 (centres unmarked) [Compound 27, 4-(8-Ethyl-3-propyl-2,3,4,8-tetrahydrochromeno[6,7-e][1,3]oxazin-7-yl)phenol] |  |  | 40.3 ± 1.2 |  | 14.5 ± 1 |
